Reference: US10358419B2, “1,3-dipolar [70]fulleropyrrolidinium iodide derivatives” (priority 2015, dated 2019)

Tests used:
[1] = system: VSV-G pseudotyped HIV-1 luciferase reporter virus (HIVluc); type: cell-based
HIV-1NL4-3 = assay: HIV-1 NL4-3 replication assay in SupT1 cells (p24 ELISA)
[2] = molecular target: recombinant HIV-1 protease (Human immunodeficiency virus type 1 group M subtype B, UniProt P03366); assay: HIV-1 protease in vitro activity assay (FRET peptide)
[3] = Solubility (UV-vis spectroscopy, solvents); settings: saturated solutions

Molecule | reduction of infectivity / inhibition [1] | Effect on HIV-1 infectivity (FIG. 1) [1] | infectivity as compared to control (100%) infectivity [1] | Effect on HIV-1 replication (FIG. 9C) (HIV-1NL4-3; 3 μM at time of infection, washed after 24 h) | Effect on HIV-1NL4-3 replication (FIG. 3) (HIV-1NL4-3; 6 μM for 24 hrs, given 24 hours after infection, p24 followed seven additional days) | inhibition of protease activity ([2]; at 80 μM) | inhibition of protease activity ([2]; at 40 (unit not given)) | solubility in H2O:DMSO (9:1) [3]
CC(C)(C)NC(=O)[C@@H]1CN(Cc2cccnc2)CCN1C[C@@H](O)C[C@@H](Cc1ccccc1)C(=O)N[C@H]1c2ccccc2C[C@H]1O [Indinavir, reference compound] | 96.6% | – | – | – | – | – | – | –
mixture of α, β and γ-N—N-dimethyl[70]fulleropyrrolidinium iodide [Compound 2a] | 72% | potently blocked the infectivity of HIV-1 | 0.026% | potent inhibitory effect | able to impair viral replication | – | – | –
α-N,N-dimethyl[70]fulleropyrrolidinium iodide [Compound 2b] | 52% | potently blocked the infectivity of HIV-1 | 0.047% | – | – | 65% | 24% | –
β-N,N-dimethyl[70]fulleropyrrolidinium iodide [Compound 2c] | 71% | potently blocked the infectivity of HIV-1 | 0.003% | – | – | – | – | 0.252 nM
